Assays:
[1] = system: Poly[ADP-ribose] polymerase-1 (PARP-1); assay: Western blot, MCF7 cells, PARP-1; type: cell-based; settings: 24 h
Protocol: Western blot analysis was used to determine the protein expression using protein specific antibodies.
Total cell lysis was conducted using 2×SDS sample buffer (62.5 mM Tris-HCl, 2% SDS, 10% glycerol, 50 mM DTT, and 0.05% bromophenol blue). The samples were sonicated for 10 s to shear DNA. Cell nuclei were isolated using Tris buffer saline with 0.4% NP40. Cell extracts were then electrophoresed through 10% SDS-polyacrylamide gels and transferred to 0.2 μm nitrocellulose membranes (Bio-Rad Laboratories, Hercules, Calif.) with a Miniprotein II transferring apparatus (Bio-Rad). The membranes were blocked and probed in TBS-T buffer (1×TBS buffer, 0.2% Tween 20) containing 5% non-fat milk. Monoclonal rabbit anti-AR (1:5000), was used to detect androgen receptor (Abcam #133273), Glucocorticoid Receptor (D8H2) XP® Rabbit mAb #3660, ERa Antibody (F-10): sc-8002, BRD4 (E2A7X) Rabbit mAb #13440, Brd2 (D89B4) Rabbit mAb #5848, PARP (46D11) Rabbit mAb #9532, Acetyl-Histone H3 (Lys27) (D5E4) XP® Rabbit mAb #8173 and a monoclonal actin antibody diluted 1:2500 (Sigma, St. Louis, Mo.) was used to detect β-actin as the internal control to confirm equal protein loading. […] Enhanced chemiluminescence reagents (Perkin-Elmer Life Science Products, Boston, Mass.) were used to visualize the immunoreactive bands and the densities of protein bands were scanned analyzed using ImageJ software from the NIH.

Brd2 = assay: Western blot, MCF7 and 22RV1 cells, Brd2; type: cell-based; settings: MCF7 (with or without E2) or 22RV1 (with or without DHT), 24 h
Protocol: (§1) Western blot analysis was used to determine the protein expression using protein specific antibodies. β-actin or histone 3 was used to normalize protein loading.
(§2) Total cell lysis was conducted using 2×SDS sample buffer (62.5 mM Tris-HCl, 2% SDS, 10% glycerol, 50 mM DTT, and 0.05% bromophenol blue). The samples were sonicated for 10 s to shear DNA. Cell nuclei were isolated using Tris buffer saline with 0.4% NP40. Cell extracts were then electrophoresed through 10% SDS-polyacrylamide gels and transferred to 0.2 μm nitrocellulose membranes (Bio-Rad Laboratories, Hercules, Calif.) with a Miniprotein II transferring apparatus (Bio-Rad). The membranes were blocked and probed in TBS-T buffer (1×TBS buffer, 0.2% Tween 20) containing 5% non-fat milk. […] Enhanced chemiluminescence reagents (Perkin-Elmer Life Science Products, Boston, Mass.) were used to visualize the immunoreactive bands and the densities of protein bands were scanned analyzed using ImageJ software from the NIH.

H3K27 acetylation = assay: Western blot, MCF7 and 22RV1 cells, H3K27 acetylation; type: cell-based; settings: 24 h
Protocol: as §1, §2

H3K14 acetylation = assay: Western blot, MCF7 and 22RV1 cells, H3K14 acetylation; type: cell-based; settings: MCF7 and 22RV1 cells (FIGS. 11A-11B), 24 h
Protocol: as §1, §2

MDAMB-231 cells = assay: Cell growth assay, MDAMB-231 breast cancer cells; type: cell-based; settings: 4 days
Protocol: MCF7, T47D, MDA-MB-453, MDA-MB-231 breast cancer cells were grown in corning T75 cell culture flask in RPMI1640 medium supplemented with 5% FBS, 50 μg/ml Kanamycin in a 37° C., 5% CO2 incubator.
20,000 cells in 1 ml of medium (phenol red free RPMI1640, 5% charcoal-dialysis FBS, 50 μg/ml Kanamyacin) were seeded per well of a 24-well plate and incubated in a 37° C. incubator with 5% CO2 overnight. Different concentrations of herbal extract were added to each well in order to have final concentrations from 50 μg/ml to 500 μg/ml. For prostate cancer cells, DHT (25 nM) was used to stimulate androgen receptor activity. For glucocorticoid receptor overexpressed LNCaP cells, dexamethasone (50 nM) was used to stimulate glucocorticoid receptor activity. For all breast cancer cells, E2 (10 nM) was used to stimulate ER activity. Control medium without any steroid hormone was used as a control setting. After 4 days of incubation, cells were fixed and stained for 2 h with 0.5% methylene blue in 50% ethanol, followed by washing with tap water to remove unbound dye. Plates were air dried and then cells were dissolved in 1% sarkosyl (sodium lauroyl sarcosinate) by shaking at room temperature for 3 h. Cell growth was quantified based on the amount of methylene blue adsorbed by the cells as measured by a spectrophotometer (Molecular Devices) at 595 nm. […]

AR (stimulated with DHT) = AR (stimulated with DHT) (Homo sapiens, UniProt P10275, T878A); assay: AR driven luciferase activity (DHT) in LNCaP / LNCaP-GR cells; settings: LNCaP / LNCaP-GR luciferase reporter cells
Protocol: Both LNCaP and GR overexpressing LNCaP cells were carrying luciferase reporters with AR response elements.
22RV1 or LNCaP prostate cancer cells were used in the screening study. 22RV1 or LNCaP cell lines were stably transfected with PSA promoter-PGL4.2 luciferase reporter.
Reporter cells were treated with herbal extracts at 30, 100, 300, and 1000 μg/ml for 24 h in a 37° C.-CO2 incubator. […] Dexamethasone (50 nM) was used to stimulate glucocorticoid receptor activity Cells were lysed using luciferase lysis buffer after which luciferase buffer with luciferin was added to generate luminescence. Luminescence was recorded using a luminescence microplate reader.

[2] = system: different prostate cell lines; assay: Growth of different prostate cell lines, all conditions; type: cell-based; settings: under all conditions, up to 500 ng/ml
Protocol: 20,000 cells in 1 ml of medium (phenol red free RPMI1640, 5% charcoal-dialysis FBS, 50 μg/ml Kanamyacin) were seeded per well of a 24-well plate and incubated in a 37° C. incubator with 5% CO2 overnight. […] For prostate cancer cells, DHT (25 nM) was used to stimulate androgen receptor activity. For glucocorticoid receptor overexpressed LNCaP cells, dexamethasone (50 nM) was used to stimulate glucocorticoid receptor activity. For all breast cancer cells, E2 (10 nM) was used to stimulate ER activity. Control medium without any steroid hormone was used as a control setting. After 4 days of incubation, cells were fixed and stained for 2 h with 0.5% methylene blue in 50% ethanol, followed by washing with tap water to remove unbound dye. Plates were air dried and then cells were dissolved in 1% sarkosyl (sodium lauroyl sarcosinate) by shaking at room temperature for 3 h. Cell growth was quantified based on the amount of methylene blue adsorbed by the cells as measured by a spectrophotometer (Molecular Devices) at 595 nm. All experiments were performed in triplicate wells and were repeated at least three times.

KLK2 mRNA = assay: qRT-PCR of KLK2 mRNA in 22RV1 cells; type: cell-based, Human; settings: 22RV1 cells treated overnight, normalized to beta-actin
Protocol: FIGS. 4C-4D are graphs showing the effect of Y1830, RG (or the fraction comprising RG) and RGA (or the fraction comprising RGA) on the mRNA of PSA (FIG. 4C) and KLK2 (FIG. 4D). 22RV1 cells were treated with Y1830, RGA or RG overnight and mRNA was extracted for qRT-PCR to determine the mRNA expression level of PSA and KLK2 as normalized to beta-actin.
RNA was extracted from herb treated cells using the Roche High Pure RNA isolation kit. cDNA was then generated from RNA samples using a Bio-rad iScript Advanced cDNA synthesis kit for RT-qPCR. qPCR was performed using human NRF2, H01, NQO1 and β-actin primers (Table 1) and iTaq™ Universal SYBR® Green Supermix in a CFX PCR machine (Bio-rad). Relative mRNA expression was calculated based on the change of the threshold cycle relative to the internal control, β-actin, using a standard curve generated by purified PCR products.

Sequence of AR (stimulated with DHT) (P10275 whole entry T878A): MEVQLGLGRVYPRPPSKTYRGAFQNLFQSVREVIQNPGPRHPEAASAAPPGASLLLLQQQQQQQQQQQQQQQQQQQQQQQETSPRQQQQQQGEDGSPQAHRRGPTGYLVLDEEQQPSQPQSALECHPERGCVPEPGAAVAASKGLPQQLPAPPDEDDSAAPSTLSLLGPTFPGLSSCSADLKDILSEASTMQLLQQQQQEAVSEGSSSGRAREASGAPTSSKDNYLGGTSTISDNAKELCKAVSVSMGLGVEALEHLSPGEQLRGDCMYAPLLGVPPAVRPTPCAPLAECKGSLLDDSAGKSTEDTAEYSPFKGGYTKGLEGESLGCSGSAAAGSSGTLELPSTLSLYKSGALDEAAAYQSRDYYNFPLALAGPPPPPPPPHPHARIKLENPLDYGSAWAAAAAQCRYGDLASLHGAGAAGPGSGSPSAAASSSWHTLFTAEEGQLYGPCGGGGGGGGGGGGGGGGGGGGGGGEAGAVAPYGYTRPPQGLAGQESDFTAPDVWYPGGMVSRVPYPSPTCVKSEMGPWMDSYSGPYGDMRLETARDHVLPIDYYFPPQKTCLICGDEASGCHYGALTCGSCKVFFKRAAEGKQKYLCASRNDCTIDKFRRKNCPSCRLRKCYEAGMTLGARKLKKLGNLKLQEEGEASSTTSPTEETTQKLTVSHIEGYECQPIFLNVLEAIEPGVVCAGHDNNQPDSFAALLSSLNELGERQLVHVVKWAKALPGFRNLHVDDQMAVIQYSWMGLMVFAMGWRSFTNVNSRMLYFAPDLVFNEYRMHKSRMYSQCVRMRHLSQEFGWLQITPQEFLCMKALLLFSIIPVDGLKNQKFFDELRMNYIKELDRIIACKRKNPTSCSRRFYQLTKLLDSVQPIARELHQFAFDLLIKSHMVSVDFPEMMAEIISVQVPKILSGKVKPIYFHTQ

## CC(=O)OCC1OC(Oc2cc3c(c(O)c2C)C(=O)c2ccc(O)cc2C3=O)C(OC2OC(C)C(O)C(O)C2O)C(O)C1O [RGA, 1,3,6-Trihydroxy-2-methyl-9,10-anthracenedione 3-O-[α-L-Rhamnopyranosyl-(1→2)-6-O-acetyl-β-D-glucopyranoside]]
[1]
  PARP-1 protein expression: downregulate
Brd2
  Brd2 protein expression: decreased
H3K27 acetylation
  H3K27 acetylation: selectively decreased
H3K14 acetylation
  H3K14 acetylation: did not have a large impact
MDAMB-231 cells
  inhibition of growth of triple negative MDAMB-231 cells: inhibited the growth
AR (stimulated with DHT)
  inhibition of DHT induced transcriptional response: effectively inhibit

## Cc1c(OC2OC(CO)C(O)C(O)C2OC2OC(C)C(O)C(O)C2O)cc2c(c1O)C(=O)c1ccc(O)cc1C2=O [RG, 1,3,6-Trihydroxy-2-methyl-9,10-anthracenedione 3-O-[α-L-Rhamnopyranosyl-(1→2)-β-D-glucopyranoside]]
[2]
  inhibitory effect on cell growth (in words): did not any show inhibitory effect
KLK2 mRNA
  inhibition of mRNA expression of KLK2: did not demonstrate this level of activity

Source: US20210196779A1, “Compositions and Methods for Treating Steroid Hormone-Related Diseases or Disorders” (YALE UNIVERSITY, priority 2018, published 2021)
